Results: paper PMC8956739, “A synthetic lipopeptide targeting top-priority multidrug-resistant Gram-negative pathogens” (Nature Communications, 2022)
Several values for one entry are separate records, joined by “and”; a condition that tells them apart may be missing. Equal values may be shown once.

Experiments:
Swiss mice, kidney = assay: Nephrotoxicity in mice (kidney histopathology); format: in vivo, mouse
Summary of the method: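 Female Swiss mice (7-week-old, 22–28 g) received lipopeptides in saline either s.c. at 12 mg/kg ×6 every 2 h (total 72 mg/kg, n = 3) or i.p. at 20 or 25 mg/kg ×6 every 2 h (total 120 mg/kg, n = 6; 150 mg/kg, n = 3). Right kidney collected 20 h after last dose, fixed in 10% buffered formalin (pH 7.4), histology scored blinded.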

A. baumannii AB5075 = assay: Transcriptomic analysis (RNA-Seq) of bacteria; format: cell-based, Acinetobacter baumannii; settings: for logFC (Differential gene expression for all genes), Geneid ABUW_RS00005 / logFC (Differential gene expression for all genes), Geneid ABUW_RS00020 / logFC (Fold change), gene ABUW_RS00010 / logFC (Fold change), gene ABUW_RS00030 / logFC (Fold change), gene ABUW_RS00035 / logFC (Fold change), gene recF (ABUW_RS00015) / 4h_1h logFC (Differential gene expression for all genes), Geneid ABUW_RS00005 / 4h_1h logFC (Differential gene expression for all genes), Geneid ABUW_RS00010 / 4h_1h logFC (Differential gene expression for all genes), Geneid ABUW_RS00015 / 4h_1h logFC (Differential gene expression for all genes), Geneid ABUW_RS00020: RNA-Seq A. baumannii AB5075; for log2FC, gene ABUW_RS01945 (acyl-CoA thioesterase II) / log2FC, gene ABUW_RS02545 (acyl-CoA thioesterase) / log2FC, gene ABUW_RS05045 (acyl-CoA thioesterase) / log2FC, gene ABUW_RS17575 (acyl-CoA thioesterase): pathway Fatty Acid and Lipid Degradation; for 4h_1h logFC (Differential gene expression for all genes), Geneid ABUW_RS00005 / 4h_1h logFC (Differential gene expression for all genes), Geneid ABUW_RS00010 / 4h_1h logFC (Differential gene expression for all genes), Geneid ABUW_RS00015 / 4h_1h logFC (Differential gene expression for all genes), Geneid ABUW_RS00020: 4h vs 1h
Procedure: Mid-log phase A. baumannii AB5075 (~10^8 CFU/mL) in CaMHB was treated with colistin (2 and 8 μg/mL), F287, F319 or F365 (equimolar concentration to colistin) for 1 and 4 h. Total RNA was extracted using TRIzol Reagent (Invitrogen, USA) and RNeasy Mini Kit (Qiagen, Germany). Quality check of RNA samples was conducted with NanoDrop (Thermo Fisher Scientific, USA) and Agilent 2100 Bioanalyzer (Agilent Technologies, USA) for sequencing (150 bp paired-end) at Genewiz (Shanghai, China). Raw reads were aligned to A. baumannii AB5075 genome (GCF_000963815, https://www.ncbi.nlm.nih.gov/assembly/GCF_000963815.1/) using subread-aligner (subread 2.0.1) and summarized by featureCounts (subread 2.0.1). Principal component analysis (PCA) was conducted with mixOmics 6.14.1 in R. Differentially expressed genes were determined using limma 3.46.0 with a combination of fold change ≥ 2 and false discovery rate (FDR, by Benjamini–Hochberg algorithm) adjusted P-value ≤ 0.05 (n = 3). Enrichment analysis of gene differential expression in AB5075 was conducted using BioCyc (A. baumannii AB5075, version 25.5). UpSetR 1.4.0, ComplexHeatmap 2.6.2 and circlize 0.4.13 were used for data visualization. Raw data were deposited in Short Reads Archive (SRA) database under accession numbers SRR15235669-SRR15235725.

P. aeruginosa ATCC 27853 = assay: Neutropenic mouse bloodstream infection model; format: in vivo; settings: single IV dose 4 mg/kg; for Δlog10 CFU/mL blood (mean): treated minus control, mean of replicates
Summary of the method: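 Female Swiss mice made neutropenic with cyclophosphamide (150 mg/kg day −4, 100 mg/kg day −1), infected IV with 50 µL of 4 × 10^8 CFU/mL. Lipopeptide 4 mg/kg (free base) IV at 2 h post-inoculation, n = 3. Efficacy = Δlog10 CFU/mL blood versus saline at 4 h post-dose.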

Colistin [reference compound] was tested, and the “Kidney histopathology (SQS Score)” value (Swiss mice, kidney; 72 mg/kg/d subcutaneously in six divided doses every 2 h, n = 3) was “+5 (SQS + 5 = severe damage (overall score, >60))”, the “Kidney histopathology, mice with the SQS score” value (Swiss mice, kidney; mouse, in vivo) was 3/3 and the “logFC (Differential gene expression for all genes), Geneid ABUW_RS00005” value (A. baumannii AB5075; H vs Cont, 1h) was -0.1415. The “logFC (Differential gene expression for all genes), Geneid ABUW_RS00020” value (A. baumannii AB5075; H vs Cont, 1h) was 0.3148, the “logFC (Fold change), gene ABUW_RS00010” value (A. baumannii AB5075; H vs Cont, 1h) was 0.4448 and the “logFC (Fold change), gene ABUW_RS00030” value (A. baumannii AB5075; H vs Cont, 1h) was -0.4924. For the same substance, the “logFC (Fold change), gene ABUW_RS00035” value (A. baumannii AB5075; H vs Cont, 1h) was 1.135, the “logFC (Fold change), gene recF (ABUW_RS00015)” value (“logFC (Fold change), gene recF” below) (A. baumannii AB5075; H vs Cont, 1h) was -0.2294 and the “log2FC, gene ABUW_RS01945 (acyl-CoA thioesterase II)” value (“log2FC, gene ABUW_RS01945” below) (A. baumannii AB5075; H vs Cont, 1h) was 0.3504. For the same substance, the “log2FC, gene ABUW_RS02545 (acyl-CoA thioesterase)” value (shortened to “log2FC, gene ABUW_RS02545”) (A. baumannii AB5075; H vs Cont, 1h) was 1.4185, the “log2FC, gene ABUW_RS05045 (acyl-CoA thioesterase)” value (from here on “log2FC, gene ABUW_RS05045”) (A. baumannii AB5075; H vs Cont, 1h) was 0.5564 and the “log2FC, gene ABUW_RS17575 (acyl-CoA thioesterase)” value (“log2FC, gene ABUW_RS17575” for short) (A. baumannii AB5075; H vs Cont, 1h) was -1.353. The “logFC (Differential gene expression for all genes), Geneid ABUW_RS00005” value (A. baumannii AB5075; H vs Cont, 4h) was -0.09217, the “logFC (Differential gene expression for all genes), Geneid ABUW_RS00020” value (A. baumannii AB5075; H vs Cont, 4h) was -0.1513 and the “logFC (Fold change), gene ABUW_RS00010” value (A. baumannii AB5075; H vs Cont, 4h) was 1.069. For the same substance, the “logFC (Fold change), gene ABUW_RS00030” value (A. baumannii AB5075; H vs Cont, 4h) was -0.5349, the “logFC (Fold change), gene ABUW_RS00035” value (A. baumannii AB5075; H vs Cont, 4h) was 1.256 and the “logFC (Fold change), gene recF” value (A. baumannii AB5075; H vs Cont, 4h) was -1.096. For the same substance, the “log2FC, gene ABUW_RS01945” value (A. baumannii AB5075; H vs Cont, 4h) was -0.7138, the “log2FC, gene ABUW_RS02545” value (A. baumannii AB5075; H vs Cont, 4h) was 0.6589 and the “log2FC, gene ABUW_RS05045” value (A. baumannii AB5075; H vs Cont, 4h) was 0.2411. The “log2FC, gene ABUW_RS17575” value (A. baumannii AB5075; H vs Cont, 4h) was -2.464, the “4h_1h logFC (Differential gene expression for all genes), Geneid ABUW_RS00005” value (A. baumannii AB5075; H) was -0.3521 and the “4h_1h logFC (Differential gene expression for all genes), Geneid ABUW_RS00010” value (A. baumannii AB5075; H) was 0.7488. The “4h_1h logFC (Differential gene expression for all genes), Geneid ABUW_RS00015” value (A. baumannii AB5075; H) was -1.211, the “4h_1h logFC (Differential gene expression for all genes), Geneid ABUW_RS00020” value (A. baumannii AB5075; H) was 0.2283 and the “logFC (Differential gene expression for all genes), Geneid ABUW_RS00005” value (A. baumannii AB5075; L vs Cont, 1h) was -0.03172. The “logFC (Differential gene expression for all genes), Geneid ABUW_RS00020” value (A. baumannii AB5075; L vs Cont, 1h) was 0.1157, the “logFC (Fold change), gene ABUW_RS00010” value (A. baumannii AB5075; L vs Cont, 1h) was -0.05024 and the “logFC (Fold change), gene ABUW_RS00030” value (A. baumannii AB5075; L vs Cont, 1h) was -0.1351. The “logFC (Fold change), gene ABUW_RS00035” value (A. baumannii AB5075; L vs Cont, 1h) was -0.09136, the “logFC (Fold change), gene recF” value (A. baumannii AB5075; L vs Cont, 1h) was -0.09027 and the “log2FC, gene ABUW_RS01945” value (A. baumannii AB5075; L vs Cont, 1h) was 0.4895. The “log2FC, gene ABUW_RS02545” value (A. baumannii AB5075; L vs Cont, 1h) was 0.2839, the “log2FC, gene ABUW_RS05045” value (A. baumannii AB5075; L vs Cont, 1h) was -0.5862 and the “log2FC, gene ABUW_RS17575” value (A. baumannii AB5075; L vs Cont, 1h) was 0.3237. The “logFC (Differential gene expression for all genes), Geneid ABUW_RS00005” value (A. baumannii AB5075; L vs Cont, 4h) was -0.01117, the “logFC (Differential gene expression for all genes), Geneid ABUW_RS00020” value (A. baumannii AB5075; L vs Cont, 4h) was -0.1061 and the “logFC (Fold change), gene ABUW_RS00010” value (A. baumannii AB5075; L vs Cont, 4h) was 0.1057. The “logFC (Fold change), gene ABUW_RS00030” value (A. baumannii AB5075; L vs Cont, 4h) was -0.4634, the “logFC (Fold change), gene ABUW_RS00035” value (A. baumannii AB5075; L vs Cont, 4h) was 0.03384 and the “logFC (Fold change), gene recF” value (A. baumannii AB5075; L vs Cont, 4h) was -0.08717. For the same substance, the “log2FC, gene ABUW_RS01945” value (A. baumannii AB5075; L vs Cont, 4h) was 0.543, the “log2FC, gene ABUW_RS02545” value (A. baumannii AB5075; L vs Cont, 4h) was -0.1794 and the “log2FC, gene ABUW_RS05045” value (A. baumannii AB5075; L vs Cont, 4h) was 0.3247. For the same substance, the “log2FC, gene ABUW_RS17575” value (A. baumannii AB5075; L vs Cont, 4h) was -0.8383, the “4h_1h logFC (Differential gene expression for all genes), Geneid ABUW_RS00005” value (A. baumannii AB5075; L) was -0.3028 and the “4h_1h logFC (Differential gene expression for all genes), Geneid ABUW_RS00010” value (A. baumannii AB5075; L) was -0.2642. The “4h_1h logFC (Differential gene expression for all genes), Geneid ABUW_RS00015” value (A. baumannii AB5075; L) was -0.2929, the “4h_1h logFC (Differential gene expression for all genes), Geneid ABUW_RS00020” value (A. baumannii AB5075; L) was 0.3892 and the “Log10 CFU/mL blood at 4 h, Mean” value (P. aeruginosa ATCC 27853; 4 h) was 5.05 Log10 CFU/mL blood. For the same substance, the “Δlog10 CFU/mL blood (mean)” value (P. aeruginosa ATCC 27853; 4 h, 4 mg/kg) was -2.39 log10 CFU/mL blood, the “Δlog10 CFU/mL blood (mean)” value (P. aeruginosa ATCC 27853; 4 h, listed as COL, 4 mg/kg) was −2.39 log10 CFU/mL blood and the “Log10 CFU/mL blood at 4 h, single mouse” value (P. aeruginosa ATCC 27853; 4 h, 4 mg/kg) was 5.25 Log10 CFU/mL blood and 4.89 Log10 CFU/mL blood and 5.02 Log10 CFU/mL blood. The “Delta Log10 CFU/mL blood at 4 h, single mouse” value (P. aeruginosa ATCC 27853; treated mouse minus mean of vehicle mice, 4 mg/kg) was -2.19 Log10 CFU/mL blood and -2.56 Log10 CFU/mL blood and -2.42 Log10 CFU/mL blood.
